Where two headings read alike, the source gives them in different places.
What was measured:
[1] = biological target: FGFR1 (h) (Homo sapiens, UniProt P11362); test: FGFR1 (enzymatic assay), TR-FRET; format: biochemical; settings: read-out: FGFR 1 pIC50 (converted)
[2] = biological target: FGFR3 (h) (Homo sapiens, UniProt P22607); test: FGFR3 (enzymatic assay), TR-FRET; format: biochemical; settings: read-out: FGFR 3 pIC50 (converted)
Description: Time-Resolved Fluorescence Resonance Energy Transfer (TR-FRET) signal (ex340 nm.

[3] = biological target: FGFR4 (h) (Homo sapiens, UniProt P22455); test: FGFR4 (enzymatic assay), TR-FRET; format: biochemical; settings: FGFR 4 pIC50, enzymatic assay
FGFR4 (h), sequence (P22455 22-802): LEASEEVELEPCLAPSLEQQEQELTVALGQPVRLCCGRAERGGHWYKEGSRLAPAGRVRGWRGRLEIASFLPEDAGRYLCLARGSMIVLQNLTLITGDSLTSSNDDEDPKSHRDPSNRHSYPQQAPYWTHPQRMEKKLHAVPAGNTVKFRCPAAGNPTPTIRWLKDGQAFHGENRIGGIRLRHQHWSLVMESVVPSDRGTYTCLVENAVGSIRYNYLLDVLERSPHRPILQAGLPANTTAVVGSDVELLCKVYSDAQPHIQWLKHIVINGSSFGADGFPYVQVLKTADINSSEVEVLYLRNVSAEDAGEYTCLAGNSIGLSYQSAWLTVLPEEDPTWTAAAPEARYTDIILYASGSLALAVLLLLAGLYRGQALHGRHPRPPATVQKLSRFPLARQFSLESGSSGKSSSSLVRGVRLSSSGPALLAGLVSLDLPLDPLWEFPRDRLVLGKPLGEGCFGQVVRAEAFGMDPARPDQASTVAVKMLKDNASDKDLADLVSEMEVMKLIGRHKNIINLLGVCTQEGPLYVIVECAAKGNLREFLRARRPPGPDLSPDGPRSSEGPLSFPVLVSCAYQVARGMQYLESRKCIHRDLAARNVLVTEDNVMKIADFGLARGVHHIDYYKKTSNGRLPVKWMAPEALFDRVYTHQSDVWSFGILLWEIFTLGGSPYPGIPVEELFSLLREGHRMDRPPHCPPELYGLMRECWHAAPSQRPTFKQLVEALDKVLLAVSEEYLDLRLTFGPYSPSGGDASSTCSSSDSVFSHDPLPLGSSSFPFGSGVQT

[4] = biological target: KDR (h) (Homo sapiens, UniProt P35968); test: KDR (VEGFR2) (enzymatic assay), TR-FRET; format: biochemical; settings: read-out: VEGFR 2 (KDR) pIC50 (converted)
In short: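 Read-out is TR-FRET (ex 340 nm, em 620 and 655 nm) in RFU, after an EDTA stop carrying Eu-labelled anti-phosphotyrosine and SA-XL-665 (60 min, RT). The preceding kinase reaction ran 120 min at RT with 150 ng/ml enzyme, 500 nM Btn-Flt3 and 3 μM ATP.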

[5] = biological target: T1, Ba/F3-FGFR1-transfected cells (Homo sapiens, UniProt P11362); test: Ba/F3-FGFR1 (minus IL3) cellular proliferation assay, Alamar Blue; format: cell-based
T1 construct: BAF3-FGFR1 (MIN IL3) pIC50; other: minus IL3
T1 sequence (P11362 whole entry, change not shown): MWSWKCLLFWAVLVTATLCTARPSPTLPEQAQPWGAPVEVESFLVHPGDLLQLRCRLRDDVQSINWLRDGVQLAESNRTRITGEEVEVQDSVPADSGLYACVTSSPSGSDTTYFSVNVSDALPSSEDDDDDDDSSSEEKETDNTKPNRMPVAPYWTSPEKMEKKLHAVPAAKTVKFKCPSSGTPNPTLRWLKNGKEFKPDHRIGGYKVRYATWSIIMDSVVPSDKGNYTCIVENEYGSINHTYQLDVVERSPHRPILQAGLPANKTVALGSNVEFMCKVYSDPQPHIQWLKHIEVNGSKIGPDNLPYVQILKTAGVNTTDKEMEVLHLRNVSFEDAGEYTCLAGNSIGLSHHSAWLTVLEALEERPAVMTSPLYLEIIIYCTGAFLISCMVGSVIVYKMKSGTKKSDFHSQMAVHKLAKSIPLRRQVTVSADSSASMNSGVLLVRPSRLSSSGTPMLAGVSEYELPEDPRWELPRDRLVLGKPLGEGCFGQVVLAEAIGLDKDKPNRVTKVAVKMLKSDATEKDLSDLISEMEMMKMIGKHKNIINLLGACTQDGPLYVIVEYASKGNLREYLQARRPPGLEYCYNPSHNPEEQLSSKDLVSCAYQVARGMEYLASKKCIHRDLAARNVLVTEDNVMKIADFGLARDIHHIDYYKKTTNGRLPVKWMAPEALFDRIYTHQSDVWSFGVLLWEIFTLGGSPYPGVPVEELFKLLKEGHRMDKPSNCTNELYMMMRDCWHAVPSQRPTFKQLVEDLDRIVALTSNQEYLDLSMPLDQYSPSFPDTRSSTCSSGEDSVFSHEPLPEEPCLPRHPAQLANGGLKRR
In short: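 Compound is dispensed first, then FGFR1-transfected Ba/F3 cells are added at 20000 per well in phenol red-free RPMI-1640 containing 10% FBS. After 24 h at 37 °C, Alamar Blue is added for 4 h and fluorescence is measured at 540/590 nm.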

[6] = system: Ba/F3-FGFR1-transfected cells; test: Ba/F3-FGFR1 (plus IL3) cellular proliferation assay, counterscreen with 10 ng/ml murine IL3; format: cell-based; settings: plus IL3 (10 ng/ml murine IL3, counterscreen); read-out: BAF3-FGFR1 (PLUS IL3) pIC50 (converted)
In short: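 Ba/F3-FGFR1 cells (20000/well) in RPMI-1640 with 10% FBS exposed to compound for 24 h at 37° C., 5% CO2, then Alamar Blue (resazurin) added for 4 h; fluorescence read at ex 540/em 590 nm. Counterscreen run identically with 10 ng/ml murine IL3.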

[7] = biological target: T2, Ba/F3-FGFR3-transfected cells (Homo sapiens, UniProt P22607); test: Ba/F3-FGFR3 (minus IL3) cellular proliferation assay, Alamar Blue; format: cell-based
T2 construct: BAF3-FGFR3 (MIN IL3) pIC50; other: minus IL3
T2 sequence (P22607 whole entry, change not shown): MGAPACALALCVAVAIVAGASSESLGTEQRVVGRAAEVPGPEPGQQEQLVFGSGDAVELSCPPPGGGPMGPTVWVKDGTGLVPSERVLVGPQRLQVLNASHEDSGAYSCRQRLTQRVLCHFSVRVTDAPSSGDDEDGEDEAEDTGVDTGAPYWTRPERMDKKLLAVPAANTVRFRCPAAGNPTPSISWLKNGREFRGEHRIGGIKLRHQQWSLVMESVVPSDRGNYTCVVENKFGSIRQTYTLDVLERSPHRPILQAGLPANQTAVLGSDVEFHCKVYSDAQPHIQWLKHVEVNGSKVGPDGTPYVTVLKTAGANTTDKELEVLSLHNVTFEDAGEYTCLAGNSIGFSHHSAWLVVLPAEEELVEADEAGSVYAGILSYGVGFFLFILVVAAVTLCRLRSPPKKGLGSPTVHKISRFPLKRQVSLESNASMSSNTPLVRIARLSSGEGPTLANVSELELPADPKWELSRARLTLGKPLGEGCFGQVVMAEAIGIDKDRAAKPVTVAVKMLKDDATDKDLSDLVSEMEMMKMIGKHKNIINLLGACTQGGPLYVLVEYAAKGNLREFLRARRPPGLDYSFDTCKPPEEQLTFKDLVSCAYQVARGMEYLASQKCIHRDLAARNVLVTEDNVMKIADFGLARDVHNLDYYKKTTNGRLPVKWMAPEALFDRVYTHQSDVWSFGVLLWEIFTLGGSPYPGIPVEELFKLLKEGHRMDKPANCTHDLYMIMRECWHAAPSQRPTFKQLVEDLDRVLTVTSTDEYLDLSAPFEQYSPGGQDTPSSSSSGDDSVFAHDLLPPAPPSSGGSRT
In short: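 Compound dilutions were dispensed first, then 20000 FGFR3-transfected Ba/F3 cells per well in serum-containing RPMI-1640 were added. After 24 h incubation at 37° C, Alamar Blue was applied for 4 h before relative fluorescence units were recorded. In the minus-IL3 format cells grow without cytokine; the other format contains 10 ng/ml murine IL3.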

[8] = system: Ba/F3-KDR-transfected cells; test: Ba/F3-KDR (plus IL3) cellular proliferation assay, counterscreen with 10 ng/ml murine IL3; format: cell-based; settings: plus IL3 (10 ng/ml murine IL3, counterscreen); read-out: BAF3-KDR (PLUS IL3) pIC50 (converted)
In short: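 20000 cells/well, RPMI-1640 + 10% FBS + 2 mM L-Gln; compound 24 h, 37° C/5% CO2; Alamar Blue 4 h; RFU ex540/em590.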

[9] = biological target: Ba/F3-FGFR4-transfected cells (Homo sapiens, UniProt P22455); test: Ba/F3-FGFR4 cellular proliferation assay, Alamar Blue; format: cell-based
Ba/F3-FGFR4-transfected cells, sequence (P22455 whole entry, change not shown): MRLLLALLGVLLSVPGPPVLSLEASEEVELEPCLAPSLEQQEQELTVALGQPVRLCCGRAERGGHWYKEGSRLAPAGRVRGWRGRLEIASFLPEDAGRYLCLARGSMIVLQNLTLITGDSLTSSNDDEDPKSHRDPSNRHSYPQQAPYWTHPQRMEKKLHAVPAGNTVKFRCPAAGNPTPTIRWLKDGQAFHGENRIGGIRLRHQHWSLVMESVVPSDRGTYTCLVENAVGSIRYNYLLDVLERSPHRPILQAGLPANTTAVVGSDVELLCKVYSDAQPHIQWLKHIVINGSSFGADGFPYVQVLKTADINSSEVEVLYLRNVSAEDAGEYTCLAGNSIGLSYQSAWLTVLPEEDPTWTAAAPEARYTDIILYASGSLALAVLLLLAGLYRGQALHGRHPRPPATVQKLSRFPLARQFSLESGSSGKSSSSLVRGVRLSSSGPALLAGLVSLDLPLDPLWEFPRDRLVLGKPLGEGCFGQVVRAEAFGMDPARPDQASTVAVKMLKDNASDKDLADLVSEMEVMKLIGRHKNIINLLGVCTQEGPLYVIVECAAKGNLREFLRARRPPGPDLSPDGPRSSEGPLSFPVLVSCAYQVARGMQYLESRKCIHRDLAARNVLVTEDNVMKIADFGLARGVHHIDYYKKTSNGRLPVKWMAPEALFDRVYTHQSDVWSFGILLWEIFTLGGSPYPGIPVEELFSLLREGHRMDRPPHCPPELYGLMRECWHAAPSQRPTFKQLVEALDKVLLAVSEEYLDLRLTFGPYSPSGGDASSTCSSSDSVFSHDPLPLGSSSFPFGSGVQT
In short: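 20000 cells/well, RPMI-1640 (phenol red free) + 10% FBS + 2 mM L-Gln; cpd from DMSO; 24 h, 37° C, 5% CO2; Alamar Blue 4 h; RFU ex 540/em 590 nm.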

[10] = average values if tested multiple times

FGFR3 (h), sequence (P22607 23-806): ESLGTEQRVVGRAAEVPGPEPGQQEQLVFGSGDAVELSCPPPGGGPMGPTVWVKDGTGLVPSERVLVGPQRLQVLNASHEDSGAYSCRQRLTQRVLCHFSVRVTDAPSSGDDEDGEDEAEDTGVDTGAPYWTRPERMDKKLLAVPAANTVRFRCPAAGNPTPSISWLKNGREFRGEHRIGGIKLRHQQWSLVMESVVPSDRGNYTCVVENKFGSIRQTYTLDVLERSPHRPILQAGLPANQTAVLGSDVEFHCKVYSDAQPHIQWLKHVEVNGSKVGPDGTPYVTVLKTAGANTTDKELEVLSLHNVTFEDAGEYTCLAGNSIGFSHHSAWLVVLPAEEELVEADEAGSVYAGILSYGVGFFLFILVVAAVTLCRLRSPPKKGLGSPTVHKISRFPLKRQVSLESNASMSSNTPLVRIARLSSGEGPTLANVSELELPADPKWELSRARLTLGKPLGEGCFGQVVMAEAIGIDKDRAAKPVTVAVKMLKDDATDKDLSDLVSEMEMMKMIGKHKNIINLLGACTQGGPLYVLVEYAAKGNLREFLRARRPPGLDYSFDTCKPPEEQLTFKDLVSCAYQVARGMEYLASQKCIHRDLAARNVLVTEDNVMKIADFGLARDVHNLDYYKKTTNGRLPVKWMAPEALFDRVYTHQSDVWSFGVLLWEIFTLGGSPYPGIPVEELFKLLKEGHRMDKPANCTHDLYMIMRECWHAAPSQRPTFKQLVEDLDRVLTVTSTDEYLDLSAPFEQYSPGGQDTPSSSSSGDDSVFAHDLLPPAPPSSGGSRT
FGFR1 (h), sequence (P11362 22-822): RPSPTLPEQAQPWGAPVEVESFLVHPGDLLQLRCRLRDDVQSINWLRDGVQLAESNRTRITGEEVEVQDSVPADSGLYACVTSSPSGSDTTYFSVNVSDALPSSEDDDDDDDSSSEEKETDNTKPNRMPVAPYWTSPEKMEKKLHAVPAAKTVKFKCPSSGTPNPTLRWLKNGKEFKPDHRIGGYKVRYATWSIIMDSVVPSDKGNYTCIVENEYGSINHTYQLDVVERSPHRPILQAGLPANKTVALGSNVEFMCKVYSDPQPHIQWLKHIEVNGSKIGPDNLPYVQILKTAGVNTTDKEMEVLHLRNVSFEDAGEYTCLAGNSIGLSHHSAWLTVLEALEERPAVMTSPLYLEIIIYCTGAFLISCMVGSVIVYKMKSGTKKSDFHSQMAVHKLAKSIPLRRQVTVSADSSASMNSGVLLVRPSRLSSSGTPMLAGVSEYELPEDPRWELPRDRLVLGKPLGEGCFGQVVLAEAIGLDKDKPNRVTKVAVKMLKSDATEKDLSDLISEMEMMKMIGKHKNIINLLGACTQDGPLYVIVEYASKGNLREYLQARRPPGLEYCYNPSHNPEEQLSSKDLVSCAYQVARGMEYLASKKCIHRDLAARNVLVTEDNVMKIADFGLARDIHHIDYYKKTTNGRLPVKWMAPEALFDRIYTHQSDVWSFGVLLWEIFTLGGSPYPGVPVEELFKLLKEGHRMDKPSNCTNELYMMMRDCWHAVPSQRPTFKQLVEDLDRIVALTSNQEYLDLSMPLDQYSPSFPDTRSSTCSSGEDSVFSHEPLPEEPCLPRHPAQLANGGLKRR

| SMILES | IC50 [1, 10] | IC50 [2, 10] | IC50 [3, 10] | IC50 [4, 10] | BAF3-FGFR1 (MIN IL3) pIC50 [5] | IC50 [6] | BAF3-FGFR3 (MIN IL3) pIC50 [7] | IC50 [8] | BAF3-FGFR4 pIC50 [9] | IC50 [1] | IC50 [2] | IC50 [3] | IC50 [4] |
| --- | --- | --- | --- | --- | --- | --- | --- | --- | --- | --- | --- | --- | --- |
| COc1cc(OC)c(F)c(/N=c2\ccc3ncc(-c4cnn(C)c4)nc3n2CC(O)COC(C)C)c1F (stereo not drawn) [Compound 64] | 0.776 nM | 0.832 nM | 1 nM | 7.41 nM | 8.40 | > 10 µM | 8.12 | > 10 µM | 7.52 |  |  |  |  |
| COc1cc(OC)c(F)c(/N=c2\ccc3ncc(-c4cnn(C)c4)nc3n2CCCN2CCCC2=O)c1F [Compound 55] | 0.603 nM | 0.49 nM | 0.447 nM | 2.82 nM | 8.12 | 7.76 µM | 8.19 | > 10 µM | 7.71 |  |  |  |  |
| COc1cc(/N=c2\ccc3ncc(-c4cnn(C)c4)nc3n2Cc2cc[nH]n2)c(F)c(OC)c1 [Compound 115] | 0.708 nM | 0.851 nM | 0.933 nM | 5.89 nM | ~8.17 | > 10 µM | 7.82 | > 10 µM | ~7.59 |  |  |  |  |
| COc1cc(OC)c(F)c(N(CCCO)c2ccc3ncc(-c4cnn(C)c4)nc3n2)c1F (single isomer, unassigned) [Compound 16] | 10 nM | 25.1 nM | 25.1 nM | 100 nM | 8.0 | > 10 µM | 7.8 | > 10 µM | 7.7 |  |  |  |  |
| COc1ccc(Cl)c(N(Cc2ncc[nH]2)c2ccc3ncc(-c4cnn(C)c4)nc3n2)c1Cl [Compound 65] | 38.9 nM | 34.7 nM | ~355 nM | 191 nM | 5.97 | > 10 µM | 6.04 | > 10 µM | 5.21 |  |  |  |  |
| COc1cc(OC)c(F)c(N(Cc2nc(C)c[nH]2)c2ccc3ncc(-c4cnn(C)c4)nc3n2)c1 [Compound 135] |  |  |  |  | 8.82 | > 10 µM | 8.25 | > 10 µM | 8.05 | 1.17 nM | 1.48 nM | 1.26 nM | 8.71 nM |
| COc1cc(/N=c2\ccc3ncc(-c4cnn(C)c4)nc3n2Cc2ccnn2C)c(F)c(OC)c1 [Compound 114] | 0.933 nM | 0.724 nM | 0.891 nM | 4.9 nM | 7.63 | > 10 µM | ~7.66 | > 10 µM | 7.14 |  |  |  |  |
| COc1cc(OC)c(F)c(N(Cc2nc[nH]n2)c2ccc3ncc(-c4cnn(C)c4)nc3n2)c1F [Compound 85] | 1.02 nM | 2.14 nM | 2.24 nM | 6.76 nM | 8.28 | > 10 µM | 8.14 | > 10 µM | 7.66 |  |  |  |  |
| COc1cc(OC)c(Cl)c(/N=c2\ccc3ncc(-c4cnn(C)c4)nc3n2CC2CCC(=O)N2)c1Cl (single isomer, unassigned) [Compound 87] | 4.07 nM | 4.57 nM | 38.9 nM | 117 nM | 6.84 | > 9.12 µM | ~6.93 | > 10 µM | 5.89 |  |  |  |  |
| Cn1cc(-c2cnc3ccc(N(Cc4ncc[nH]4)c4cc(F)cc(F)c4)nc3n2)cn1 [Compound 27] | 19.1 nM | 3.89 nM | 11.2 nM | 501 nM | 6.14 | > 10 µM | ~6.54 | > 10 µM | 6.09 |  |  |  |  |
| COc1cc(OC)c(F)c(N(CCO)c2ccc3ncc(-c4cnn(C)c4)nc3n2)c1F [Compound 20] | 25.1 nM | 1.58 nM | 3.98 nM | 316 nM | 8.35 | > 10 µM | 8.15 | > 10 µM | 7.63 |  |  |  |  |
| COc1cc(/N=c2\ccc3ncc(-c4cnn(C)c4)nc3n2CC2COC(=O)N2)c(F)c(OC)c1 (stereo not drawn) [Compound 123] |  |  |  |  | 7.21 | > 10 µM | 7.16 | > 10 µM | 6.62 | 1.35 nM | 0.741 nM | 2.75 nM | 21.9 nM |
| COc1cc(OC)c(F)c(N(CC(O)COC(C)C)c2ccc3ncc(-c4cnn(C)c4)nc3n2)c1F (stereo not drawn) [Compound 63] | 3.72 nM | 6.31 nM | 6.03 nM | 15.8 nM | 7.90 | > 10 µM | 7.97 | > 10 µM | 7.49 |  |  |  |  |
| COc1cc(O)cc(N(Cc2ncc[nH]2)c2ccc3ncc(-c4cnn(C)c4)nc3n2)c1 [Compound 103] | 0.339 nM | 0.417 nM | 0.741 nM | 5.37 nM | 8.31 | > 8.51 µM | ~8.00 | > 10 µM | ~7.43 |  |  |  |  |
| COCC(O)CN(c1ccc2ncc(-c3cnn(C)c3)nc2n1)c1c(F)c(OC)cc(OC)c1F (stereo not drawn) [Compound 50] | 1.74 nM | 3.63 nM | 3.24 nM | 21.9 nM | 8.10 | > 10 µM | ~8.11 | > 10 µM | 7.66 |  |  |  |  |

Source: patent US9309242B2, “Substituted pyrido[2,3-b]pyrazines as FGFR kinase inhibitors” (priority 2011, dated 2016)
